Data from patent US20160158317A1, “Antimicrobial Peptide Variants and Polynucleotides Encoding Same” (Adenium Biotech A/S, priority 2010, published 2016).
Where a SMILES comes first, the peptide text is derived from it. Bridges are numbered along the chain shown (N, C = ends).

test: Determination of the protein binding (90% serum, 30 kDa filter, HPLC); assay type: in vitro ADME; conditions: serum
Experimental: Protein binding assays were performed as follows. The purified peptides were mixed with 90% serum and centrifuged through a 30 kDa filter. The ultra-filtrate and the non filtrated serum samples were quantified by HPLC measurements and the protein binding was subsequently calculated.

SMILES | fraction unbound
CC(C)[C@@H]1NC(=O)CNC(=O)[C@H](CC(N)=O)NC(=O)[C@H](CCCNC(=N)N)NC(=O)[C@H](Cc2ccc(O)cc2)NC(=O)[C@H](C(C)C)NC(=O)[C@@H]2CSSC[C@H](NC(=O)[C@H](C(C)C)NC(=O)[C@H](CCCNC(=N)N)NC1=O)C(=O)N[C@@H](Cc1ccc(O)cc1)C(=O)N[C@@H](CCCNC(=N)N)C(=O)N[C@@H](CCCNC(=N)N)C(=O)N[C@H](C(=O)N[C@@H](CC(N)=O)C(=O)O)CSSC[C@H](NC(=O)[C@H](C)NC(=O)CN)C(=O)N[C@@H](Cc1c[nH]c3ccccc13)C(=O)N[C@@H](Cc1ccc(O)cc1)C(=O)N[C@@H](C(C)C)C(=O)N2 [compound 3] (H-GACWYVCVYRNGVRVCYRRCN-OH; disulfide 3-20, 7-16 (inferred); N-terminus and C-terminus assumed) | 0.14
CC(C)[C@@H]1NC(=O)CNC(=O)[C@H](CC(N)=O)NC(=O)[C@H](CCCNC(=N)N)NC(=O)[C@H](Cc2ccc(O)cc2)NC(=O)[C@H](C(C)C)NC(=O)[C@@H]2CSSC[C@H](NC(=O)[C@H](C(C)C)NC(=O)[C@H](CCCNC(=N)N)NC1=O)C(=O)N[C@@H](Cc1ccc(O)cc1)C(=O)N[C@@H](CCCNC(=N)N)C(=O)N[C@@H](CCCNC(=N)N)C(=O)N[C@H](C(=O)N[C@@H](CC(N)=O)C(=O)O)CSSC[C@H](NC(=O)[C@H](Cc1ccccc1)NC(=O)CN)C(=O)N[C@@H](C)C(=O)N[C@@H](Cc1ccc(O)cc1)C(=O)N[C@@H](C(C)C)C(=O)N2 [compound 4] (H-GFCAYVCVYRNGVRVCYRRCN-OH; disulfide 3-20, 7-16 (inferred); N-terminus and C-terminus assumed) | 0.11
CC(C)[C@@H]1NC(=O)CNC(=O)[C@H](CC(N)=O)NC(=O)[C@H](CCCNC(=N)N)NC(=O)[C@H](Cc2ccc(O)cc2)NC(=O)[C@H](C(C)C)NC(=O)[C@@H]2CSSC[C@H](NC(=O)[C@H](C(C)C)NC(=O)[C@H](CCCNC(=N)N)NC1=O)C(=O)N[C@@H](Cc1ccc(O)cc1)C(=O)N[C@@H](CCCNC(=N)N)C(=O)N[C@@H](CCCNC(=N)N)C(=O)N[C@H](C(=O)N[C@@H](CC(N)=O)C(=O)O)CSSC[C@H](NC(=O)[C@H](Cc1ccccc1)NC(=O)CN)C(=O)N[C@@H](CO)C(=O)N[C@@H](Cc1ccc(O)cc1)C(=O)N[C@@H](C(C)C)C(=O)N2 [compound 7] (H-GFCSYVCVYRNGVRVCYRRCN-OH; disulfide 3-20, 7-16 (inferred); N-terminus and C-terminus assumed) | 0.32
CC(C)[C@@H]1NC(=O)CNC(=O)[C@H](CC(N)=O)NC(=O)[C@H](CCCNC(=N)N)NC(=O)[C@H](Cc2ccc(O)cc2)NC(=O)[C@H](C(C)C)NC(=O)[C@@H]2CSSC[C@H](NC(=O)[C@H](C(C)C)NC(=O)[C@H](CCCNC(=N)N)NC1=O)C(=O)N[C@@H](Cc1ccc(O)cc1)C(=O)N[C@@H](CCCNC(=N)N)C(=O)N[C@@H](CCCNC(=N)N)C(=O)N[C@H](C(=O)N[C@@H](CC(N)=O)C(=O)O)CSSC[C@H](NC(=O)[C@H](Cc1ccccc1)NC(=O)CN)C(=O)N[C@@H](Cc1c[nH]c3ccccc13)C(=O)N[C@@H](CCCCN)C(=O)N[C@@H](C(C)C)C(=O)N2 [compound 10] (H-GFCWKVCVYRNGVRVCYRRCN-OH; disulfide 3-20, 7-16 (inferred); N-terminus and C-terminus assumed) | 0.36
CC(C)[C@@H]1NC(=O)CNC(=O)[C@H](CC(N)=O)NC(=O)[C@H](CCCNC(=N)N)NC(=O)[C@H](Cc2ccc(O)cc2)NC(=O)[C@H](C(C)C)NC(=O)[C@@H]2CSSC[C@H](NC(=O)[C@H](C(C)C)NC(=O)[C@H](CCCNC(=N)N)NC1=O)C(=O)N[C@@H](Cc1ccc(O)cc1)C(=O)N[C@@H](CCCNC(=N)N)C(=O)N[C@@H](CCCNC(=N)N)C(=O)N[C@H](C(=O)N[C@@H](CC(N)=O)C(=O)O)CSSC[C@H](NC(=O)[C@H](Cc1ccccc1)NC(=O)CN)C(=O)N[C@@H](Cc1c[nH]c3ccccc13)C(=O)N[C@@H](CC(N)=O)C(=O)N[C@@H](C(C)C)C(=O)N2 [compound 11] (H-GFCWNVCVYRNGVRVCYRRCN-OH; disulfide 3-20, 7-16 (inferred); N-terminus and C-terminus assumed) | 0.27
CC(C)[C@@H]1NC(=O)CNC(=O)[C@H](CC(N)=O)NC(=O)[C@H](CCCNC(=N)N)NC(=O)[C@H](Cc2ccc(O)cc2)NC(=O)[C@H](C(C)C)NC(=O)[C@@H]2CSSC[C@H](NC(=O)[C@H](C(C)C)NC(=O)[C@H](CCCNC(=N)N)NC1=O)C(=O)N[C@@H](Cc1ccc(O)cc1)C(=O)N[C@@H](CCCNC(=N)N)C(=O)N[C@@H](CCCNC(=N)N)C(=O)N[C@H](C(=O)N[C@@H](CC(N)=O)C(=O)O)CSSC[C@H](NC(=O)[C@H](Cc1ccccc1)NC(=O)CN)C(=O)N[C@@H](Cc1c[nH]c3ccccc13)C(=O)N[C@@H](Cc1ccc(O)cc1)C(=O)NCC(=O)N2 [compound 15] (H-GFCWYGCVYRNGVRVCYRRCN-OH; disulfide 3-20, 7-16 (inferred); N-terminus and C-terminus assumed) | 0.04
CC(C)[C@@H]1NC(=O)CNC(=O)[C@H](CC(N)=O)NC(=O)[C@H](CCCNC(=N)N)NC(=O)[C@H](Cc2ccc(O)cc2)NC(=O)[C@H](C(C)C)NC(=O)[C@@H]2CSSC[C@H](NC(=O)[C@H](C(C)C)NC(=O)[C@H](CCCNC(=N)N)NC1=O)C(=O)N[C@@H](Cc1ccc(O)cc1)C(=O)N[C@@H](CCCNC(=N)N)C(=O)N[C@@H](CCCNC(=N)N)C(=O)N[C@H](C(=O)N[C@@H](CC(N)=O)C(=O)O)CSSC[C@H](NC(=O)[C@H](Cc1ccccc1)NC(=O)CN)C(=O)N[C@@H](Cc1c[nH]c3ccccc13)C(=O)N[C@@H](Cc1ccc(O)cc1)C(=O)N[C@@H](CO)C(=O)N2 [compound 19] (H-GFCWYSCVYRNGVRVCYRRCN-OH; disulfide 3-20, 7-16 (inferred); N-terminus and C-terminus assumed) | 0.11
CC(C)[C@@H]1NC(=O)CNC(=O)[C@H](CC(N)=O)NC(=O)[C@H](CCCNC(=N)N)NC(=O)[C@H](Cc2ccc(O)cc2)NC(=O)[C@H](C(C)C)NC(=O)[C@@H]2CSSC[C@H](NC(=O)[C@H](C(C)C)NC(=O)[C@H](CCCNC(=N)N)NC1=O)C(=O)N[C@@H](Cc1ccc(O)cc1)C(=O)N[C@@H](CCCNC(=N)N)C(=O)N[C@@H](CCCNC(=N)N)C(=O)N[C@H](C(=O)N[C@@H](CC(N)=O)C(=O)O)CSSC[C@H](NC(=O)[C@H](Cc1ccccc1)NC(=O)CN)C(=O)N[C@@H](Cc1c[nH]c3ccccc13)C(=O)N[C@@H](Cc1ccc(O)cc1)C(=O)N[C@@H](Cc1c[nH]c3ccccc13)C(=O)N2 [compound 20] (H-GFCWYWCVYRNGVRVCYRRCN-OH; disulfide 3-20, 7-16 (inferred); N-terminus and C-terminus assumed) | 0.01
CC(C)[C@@H]1NC(=O)CNC(=O)[C@H](CC(N)=O)NC(=O)[C@H](CCCNC(=N)N)NC(=O)[C@H](Cc2ccc(O)cc2)NC(=O)[C@H](C)NC(=O)[C@@H]2CSSC[C@H](NC(=O)[C@H](C(C)C)NC(=O)[C@H](CCCNC(=N)N)NC1=O)C(=O)N[C@@H](Cc1ccc(O)cc1)C(=O)N[C@@H](CCCNC(=N)N)C(=O)N[C@@H](CCCNC(=N)N)C(=O)N[C@H](C(=O)N[C@@H](CC(N)=O)C(=O)O)CSSC[C@H](NC(=O)[C@H](Cc1ccccc1)NC(=O)CN)C(=O)N[C@@H](Cc1c[nH]c3ccccc13)C(=O)N[C@@H](Cc1ccc(O)cc1)C(=O)N[C@@H](C(C)C)C(=O)N2 [compound 21] (H-GFCWYVCAYRNGVRVCYRRCN-OH; disulfide 3-20, 7-16 (inferred); N-terminus and C-terminus assumed) | 0.015
CC(C)[C@@H]1NC(=O)CNC(=O)[C@H](CC(N)=O)NC(=O)[C@H](CCCNC(=N)N)NC(=O)[C@H](Cc2ccc(O)cc2)NC(=O)[C@H](Cc2c[nH]cn2)NC(=O)[C@@H]2CSSC[C@H](NC(=O)[C@H](C(C)C)NC(=O)[C@H](CCCNC(=N)N)NC1=O)C(=O)N[C@@H](Cc1ccc(O)cc1)C(=O)N[C@@H](CCCNC(=N)N)C(=O)N[C@@H](CCCNC(=N)N)C(=O)N[C@H](C(=O)N[C@@H](CC(N)=O)C(=O)O)CSSC[C@H](NC(=O)[C@H](Cc1ccccc1)NC(=O)CN)C(=O)N[C@@H](Cc1c[nH]c3ccccc13)C(=O)N[C@@H](Cc1ccc(O)cc1)C(=O)N[C@@H](C(C)C)C(=O)N2 [compound 23] (H-GFCWYVCHYRNGVRVCYRRCN-OH; disulfide 3-20, 7-16 (inferred); N-terminus and C-terminus assumed) | 0.02
CC(C)[C@@H]1NC(=O)CNC(=O)[C@H](CC(N)=O)NC(=O)[C@H](CCCNC(=N)N)NC(=O)[C@H](Cc2ccc(O)cc2)NC(=O)[C@H](CO)NC(=O)[C@@H]2CSSC[C@H](NC(=O)[C@H](C(C)C)NC(=O)[C@H](CCCNC(=N)N)NC1=O)C(=O)N[C@@H](Cc1ccc(O)cc1)C(=O)N[C@@H](CCCNC(=N)N)C(=O)N[C@@H](CCCNC(=N)N)C(=O)N[C@H](C(=O)N[C@@H](CC(N)=O)C(=O)O)CSSC[C@H](NC(=O)[C@H](Cc1ccccc1)NC(=O)CN)C(=O)N[C@@H](Cc1c[nH]c3ccccc13)C(=O)N[C@@H](Cc1ccc(O)cc1)C(=O)N[C@@H](C(C)C)C(=O)N2 [compound 24] (H-GFCWYVCSYRNGVRVCYRRCN-OH; disulfide 3-20, 7-16) | 0.15
CC(C)[C@@H]1NC(=O)CNC(=O)[C@H](CC(N)=O)NC(=O)[C@H](CCCNC(=N)N)NC(=O)[C@H](Cc2ccc(O)cc2)NC(=O)[C@H](Cc2ccc(O)cc2)NC(=O)[C@@H]2CSSC[C@H](NC(=O)[C@H](C(C)C)NC(=O)[C@H](CCCNC(=N)N)NC1=O)C(=O)N[C@@H](Cc1ccc(O)cc1)C(=O)N[C@@H](CCCNC(=N)N)C(=O)N[C@@H](CCCNC(=N)N)C(=O)N[C@H](C(=O)N[C@@H](CC(N)=O)C(=O)O)CSSC[C@H](NC(=O)[C@H](Cc1ccccc1)NC(=O)CN)C(=O)N[C@@H](Cc1c[nH]c3ccccc13)C(=O)N[C@@H](Cc1ccc(O)cc1)C(=O)N[C@@H](C(C)C)C(=O)N2 [compound 25] (H-GFCWYVCYYRNGVRVCYRRCN-OH; disulfide 3-20, 7-16 (inferred); N-terminus and C-terminus assumed) | 0.02
